{"source": "paper PMC4302236", "about": "“Functional profile of a novel modulator of serotonin, dopamine, and glutamate neurotransmission” (Psychopharmacology, 2014)", "key": {"[1]": {"target": "T1, Histamine H1 receptor (Bos taurus, UniProt P30546)", "T1 construct": "tissue NovaScreen/Caliper/Perkin-Elmer; host or cells: bovine cerebellum", "T1 sequence (P30546 whole entry)": "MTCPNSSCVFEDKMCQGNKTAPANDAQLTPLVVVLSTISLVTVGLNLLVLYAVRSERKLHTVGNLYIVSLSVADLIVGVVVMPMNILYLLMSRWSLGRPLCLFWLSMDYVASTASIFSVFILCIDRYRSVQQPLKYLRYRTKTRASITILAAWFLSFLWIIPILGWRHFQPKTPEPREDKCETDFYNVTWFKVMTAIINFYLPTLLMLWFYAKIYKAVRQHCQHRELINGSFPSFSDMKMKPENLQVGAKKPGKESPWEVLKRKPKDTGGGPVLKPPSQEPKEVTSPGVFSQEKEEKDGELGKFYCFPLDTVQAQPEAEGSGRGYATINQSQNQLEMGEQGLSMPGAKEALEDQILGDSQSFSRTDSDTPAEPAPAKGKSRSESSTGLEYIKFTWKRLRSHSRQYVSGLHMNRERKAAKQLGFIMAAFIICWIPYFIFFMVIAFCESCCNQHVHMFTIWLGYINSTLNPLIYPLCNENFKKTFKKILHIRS", "test": "Histamine H1 receptor binding in bovine cerebellum (3H-pyrilamine)", "description": "(§1) Binding activity at a variety of receptor targets, including recombinant human serotonin receptors and rat dopamine D2 and human recombinant dopamine D4 receptors, was measured in vitro using standard radioligand displacement methods (NovaScreen/Caliper/Perkin-Elmer, Hanover, MD), to determine affinity. […] D2 receptor binding was measured at rat recombinant receptors expressed in Chinese hamster ovary (CHO) cells and using ^3H-methylspiperone as a radioligand and in rat striatum using ^3H-sulpiride as a radioligand. […] D4 receptor binding was measured at human recombinant receptor s expressed in CHO cells and using ^3 H-methylspiperone as a radioligand. D1 receptor binding at human recombinant receptor was measured in CHO cells using ^3H-SCH23390 as a radioligand. 5-HT2C receptor binding was measured in pig choroid plexus using ^3 H-methylsergide as a radioligand. Binding to alpha adrenergic receptors in the rat frontal cortex (alpha1A) or rat liver (alpha1B) was measured using ^3H-prazosin as a radioligand. Histamine H1 receptor binding was measured in bovine cere- bellum using ^3H-pyrilamine as a radioligand. […] The affinity constant (Ki) for each receptor subtype or inhibitory concentration 50 (IC50) for inhibition in functional assays was calculated."}, "[2]": {"target": "5-HT2A receptor (Homo sapiens, UniProt P28223)", "sequence (P28223 whole entry)": "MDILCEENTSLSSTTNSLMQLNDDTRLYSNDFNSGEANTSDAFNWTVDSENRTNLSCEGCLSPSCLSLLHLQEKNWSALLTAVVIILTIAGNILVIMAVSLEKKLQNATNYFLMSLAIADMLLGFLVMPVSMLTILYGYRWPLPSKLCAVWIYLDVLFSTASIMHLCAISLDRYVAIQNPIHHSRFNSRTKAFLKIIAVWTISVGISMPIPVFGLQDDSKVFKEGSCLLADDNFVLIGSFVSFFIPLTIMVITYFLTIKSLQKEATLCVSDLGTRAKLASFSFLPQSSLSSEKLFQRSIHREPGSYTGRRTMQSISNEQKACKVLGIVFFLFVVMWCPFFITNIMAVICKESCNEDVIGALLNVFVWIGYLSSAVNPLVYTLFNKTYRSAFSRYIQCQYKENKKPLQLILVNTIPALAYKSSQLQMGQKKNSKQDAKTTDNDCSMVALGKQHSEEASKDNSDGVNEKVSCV", "test": "Serotonin-mediated phosphatidylinositol (PI) turnover in HEK293 cells", "type": "cell-based", "conditions": "right-shifting the serotonin dose–response curve"}, "[3]": {"test_system": "T2, Adrenergic, 1β", "T2 construct": "tissue NovaScreen/Caliper/Perkin-Elmer; host or cells: rat liver (inferred)", "T2 sequence (P15823 whole entry)": "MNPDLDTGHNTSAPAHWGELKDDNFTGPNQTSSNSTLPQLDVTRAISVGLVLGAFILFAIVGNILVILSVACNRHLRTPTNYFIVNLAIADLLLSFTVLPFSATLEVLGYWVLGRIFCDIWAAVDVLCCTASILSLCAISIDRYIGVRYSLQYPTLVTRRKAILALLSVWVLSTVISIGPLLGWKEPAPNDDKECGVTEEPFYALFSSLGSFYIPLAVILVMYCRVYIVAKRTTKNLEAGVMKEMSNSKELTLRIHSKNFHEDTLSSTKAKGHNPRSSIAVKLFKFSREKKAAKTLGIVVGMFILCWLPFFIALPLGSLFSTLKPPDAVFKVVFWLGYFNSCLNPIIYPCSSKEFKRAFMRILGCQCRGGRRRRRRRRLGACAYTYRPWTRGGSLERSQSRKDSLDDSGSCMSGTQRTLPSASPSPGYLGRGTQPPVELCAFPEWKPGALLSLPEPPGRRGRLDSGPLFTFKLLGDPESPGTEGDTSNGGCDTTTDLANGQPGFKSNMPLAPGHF", "test": "NovaScreen broad selectivity panel at 100 nM, Adrenergic 1β", "conditions": "average of replicate tubes, read-out: % Inhibition of binding at 100 nM concentration, Adrenergic 1β"}, "[4]": {"target": "T3, Dopamine, D4 (Homo sapiens, UniProt P21917)", "T3 sequence (P21917 1-419)": "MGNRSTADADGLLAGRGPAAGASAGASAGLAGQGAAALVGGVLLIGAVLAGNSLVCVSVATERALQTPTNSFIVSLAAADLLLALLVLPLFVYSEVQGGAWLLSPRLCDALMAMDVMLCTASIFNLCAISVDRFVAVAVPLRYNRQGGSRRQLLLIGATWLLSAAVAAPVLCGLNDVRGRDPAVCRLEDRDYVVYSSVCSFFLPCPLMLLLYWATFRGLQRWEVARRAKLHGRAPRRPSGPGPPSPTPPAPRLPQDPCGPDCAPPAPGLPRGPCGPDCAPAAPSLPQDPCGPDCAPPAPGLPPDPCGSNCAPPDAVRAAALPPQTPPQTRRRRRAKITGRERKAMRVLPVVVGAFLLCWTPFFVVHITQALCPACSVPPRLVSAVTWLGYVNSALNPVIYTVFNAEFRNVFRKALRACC", "test": "NovaScreen broad selectivity panel at 100 nM, Dopamine D4", "conditions": "average of replicate tubes, read-out: % Inhibition of binding at 100 nM concentration, Dopamine D4", "description": "as §1"}, "[5]": {"test_system": "panel of 66 receptors, ion channels, and enzymes", "test": "NovaScreen broad selectivity panel at 100 nM, whole panel", "type": "binding"}, "[6]": {"target": "5-HT2B receptors (Homo sapiens, UniProt P41595)", "sequence (P41595 whole entry)": "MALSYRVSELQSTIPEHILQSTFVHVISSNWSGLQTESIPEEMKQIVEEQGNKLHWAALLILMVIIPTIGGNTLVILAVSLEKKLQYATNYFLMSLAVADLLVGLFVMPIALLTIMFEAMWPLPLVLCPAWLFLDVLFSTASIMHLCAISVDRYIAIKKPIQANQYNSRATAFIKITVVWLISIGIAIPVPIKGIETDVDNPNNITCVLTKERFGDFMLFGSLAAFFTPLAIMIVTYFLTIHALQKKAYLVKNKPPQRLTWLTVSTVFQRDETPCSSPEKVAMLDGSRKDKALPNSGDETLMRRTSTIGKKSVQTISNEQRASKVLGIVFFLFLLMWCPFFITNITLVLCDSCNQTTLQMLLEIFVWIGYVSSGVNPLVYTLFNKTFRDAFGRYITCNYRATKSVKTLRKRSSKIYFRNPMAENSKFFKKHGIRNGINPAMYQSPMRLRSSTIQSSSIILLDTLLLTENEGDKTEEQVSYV", "test": "Binding to 5-HT2B receptors"}, "[7]": {"test_system": "DOI-induced headtwitch", "test": "Inhibition of DOI-induced headtwitch (in vivo 5-HT2A antagonism)", "conditions": "mice, p.o., 30 min prior to DOI […] i.p.", "description": "Inhibition of DOI-induced headtwitch was measured as a functional assay for the in vivo potency of the compound as an antagonist at 5-HT2A receptors. […] Headtwitches were then counted for 5 min, starting 10 min after DOI injection. An ID50 for inhibition of DOI-induced headtwitch was calculated using a four-parameter logistical fit (Excel Fit software, IDBS)."}, "[8]": {"test_system": "striatal dopamine metabolism", "test": "Striatal dopamine metabolism (HPLC-EC of DA, DOPAC, HVA)", "type": "in vivo, mice", "conditions": "for DOPAC/DA, chronic (21 day) dosing, mean / HVA/DA, chronic (21 day) dosing, mean: striatum 2 h after last dose; for DOPAC/DA, acute (2 h) dosing, mean / HVA/DA, acute (2 h) dosing, mean: striatum 2 h after dose", "description": "Measurements of tissue dopamine levels were performed at CDC-NIOSH. […] Striatum was rapidly dissected from each mouse brain, weighed, and placed into Eppendorf tubes that were frozen in liquid nitrogen and stored at -80 °C. […] Tissues were homogenized in 100 μl of ice-cold 0.2 M perchloric acid containing 1 μM dihydroxybenzylamine (DHBA) as an internal standard and centrifuged at 10,000×g for 10 min at 4 °C. The supernatant was filtered through a 0.2 μm nitrocellulose membrane, and an aliquot (10 μl) was injected from a temperature-controlled (4 °C) automatic sample injector (Waters 717plus Autosampler) connected to a Waters 515 HPLC pump. Catecholamines were separated on a C18 reverse-phase column ([…]; Waters […] 25 cm×4.6 mm; 5 μm), electrochemically detected (Waters 464 Pulsed Electrochemical Detector; range 10 nA, potential +0.7 V), and analyzed using Millennium software. […] A flow rate of 1 ml/min was used. […] The recovery of each analyte was adjusted with respect to the internal standard and quantified from a standard curve. The levels of dopamine and its metabolites, DOPAC and HVA, were calculated from the AUC values for each (based on microgram per gram (μg/g) tissue wet weight) and expressed as a percent of the saline control."}, "[9]": {"test_system": "social defeat model", "test": "Social interaction behavior after repeated social defeat", "type": "in vivo", "conditions": "mice, 1 mg/kg i.p. once daily 28 days after 10 days defeat; 150 s test", "description": "Mice were tested for social isolation behavior after repeated exposure (for 10 days) to an aggressive resident mouse in the social defeat paradigm as described by [Berton et al. (2006)]. […] On the day after the last drug or vehicle treatment, the mice were placed in an open field in the presence of a resident mouse (within a smaller cage) and the animal’s behavior recorded by videotape for 150 s. Videotracking software (Noldus, Netherlands) was used to calculate the total time each mouse spent in specified open-field quadrants, defined schematically in Fig. 8. The total time (s) spent by mice representing each drug treatment group in the interaction zone (Fig. 8) in proximity to the resident mouse or, in the corner zones, at a distance from the resident mouse (Fig. 8) was expressed as a mean (±SEM)."}, "[10]": {"test_system": "forelimb catalepsy", "conditions": "mouse, in vivo", "experimental": "Forelimb catalepsy was measured using the bar grip test. Mice were placed in a Lucite mouse cage outfitted with a 3-mm diameter wooden rod suspended 4 cm from the floor of the cage. During testing, the mouse was allowed to grip the bar firmly with hind legs placed firmly on the floor of the cage. The mouse was required to maintain this posture for at least 10 s for a valid test session. Catalepsy was then quantitated by recording the latency (in seconds) to step both front paws down to the floor of the cage up to a maximum time of 120 s. If the mouse stepped off the bar immediately (less than 10 s), another attempt was made up to a maximum of ten attempts. The longest duration of immobility was recorded if none of the ten attempts were beyond 10 s. Catalepsy was measured for each mouse at 2, 3, 4, and 6 h after drug administration. Mean forelimb catalepsy time (in seconds) was calculated across each group and time point. Data were analyzed using ANOVA with Newman–Keuls post hoc test."}, "[11]": {"conditions": "1 mg/kg p.o. once daily 21 days"}, "[12]": {"conditions": "3 mg/kg p.o. once daily 21 days"}, "[13]": {"conditions": "10 mg/kg p.o. once daily 21 days"}}}
{"smiles": "CN1CCN2c3c(cccc31)[C@@H]1CN(CCCC(=O)c3ccc(F)cc3)CC[C@@H]12", "note": "[ITI-007, 1-(4-fluoro-phenyl)-4-((6bR,10aS)-3-methyl-2,3,6b,9,10,10a-hexahydro-1H,7H-pyrido[3′,4′:4,5]pyrrolo[1,2,3-de]quinoxalin-8-yl)-butan-1-one]", "values": [{"measurement": "Binding to histamine H1 receptors", "setting": "[1]", "value": "no significant binding"}, {"measurement": "Ki", "setting": "[1]; radioligand displacement, unit inferred", "value": "> 1000", "unit": "nM"}, {"measurement": "Effect on serotonin-mediated increases in phosphatidylinositol (PI) turnover", "setting": "[2]", "value": "antagonize"}, {"measurement": "inhibition at 0.1 µM", "setting": "[3]", "value": 85.4, "unit": "%"}, {"measurement": "inhibition at 0.1 µM", "setting": "[4]", "value": 64.3, "unit": "%"}, {"measurement": "Binding to the other targets of the panel", "setting": "[5]; 100 nM, custom panel of 66 receptors, ion channels, and enzymes", "value": "did not bind significantly"}, {"measurement": "Ki", "setting": "[5]; read-out: projected Ki values (>50 % binding inhibition), single concentration 100 nM, at the 5-HT2A, D1, D2, D4, alpha1A and alpha1B receptors, and at SERT", "value": "≤ 100", "unit": "nM"}, {"measurement": "Binding to 5-HT2B receptors", "setting": "[6]", "value": "did not significantly bind"}, {"measurement": "ID50, inhibition of DOI-induced headtwitch", "setting": "[7]", "value": 0.09, "unit": "mg/kg"}, {"measurement": "DOPAC/DA, chronic (21 day) dosing, mean", "setting": "[8]; [11]", "value": 4.69}, {"measurement": "HVA/DA, chronic (21 day) dosing, mean", "setting": "[8]; [11]", "value": 9.44}, {"measurement": "DOPAC/DA, acute (2 h) dosing, mean", "setting": "[8]; 1 mg/kg p.o. once", "value": 4.98}, {"measurement": "HVA/DA, acute (2 h) dosing, mean", "setting": "[8]; 1 mg/kg p.o. once", "value": 8.06}, {"measurement": "DOPAC/DA, chronic (21 day) dosing, mean", "setting": "[8]; [12]", "value": 4.54}, {"measurement": "HVA/DA, chronic (21 day) dosing, mean", "setting": "[8]; [12]", "value": 7.99}, {"measurement": "DOPAC/DA, acute (2 h) dosing, mean", "setting": "[8]; 3 mg/kg p.o. once", "value": 4.57}, {"measurement": "HVA/DA, acute (2 h) dosing, mean", "setting": "[8]; 3 mg/kg p.o. once", "value": 7.47}, {"measurement": "DOPAC/DA, chronic (21 day) dosing, mean", "setting": "[8]; [13]", "value": 5.80}, {"measurement": "HVA/DA, chronic (21 day) dosing, mean", "setting": "[8]; [13]", "value": 10.47}, {"measurement": "DOPAC/DA, acute (2 h) dosing, mean", "setting": "[8]; 10 mg/kg p.o. once", "value": 6.02}, {"measurement": "HVA/DA, acute (2 h) dosing, mean", "setting": "[8]; 10 mg/kg p.o. once", "value": 8.40}, {"measurement": "Time spent in interaction zone (social behavior) after chronic social defeat", "setting": "[9]", "value": "no such reduction in social behavior"}, {"measurement": "Cataleptogenic activity", "setting": "[10]", "value": "no demonstrable cataleptogenic activity"}, {"measurement": "Forelimb catalepsy, bar grip test", "setting": "[10]; po, 30 mg/kg", "value": "statistically significant increase in forelimb catalepsy"}]}
